In patent publication US12404232B2, “Compounds and compositions for intracellular delivery of therapeutic agents” (ModernaTX, Inc., priority 2015, dated 2025):

How the values were obtained:
rats [1] = test: Cytokine induction (IP-10) in rats after intravenous administration; assay type: in vivo; details: rat, 6 hours after administration of hEPO nanoparticle compositions, 2.0 mpk
Protocol: The expression of hEPO and cytokine induction in rats intravenously administered a nanoparticle composition at a dose of 2.0 mpk was measured at 6 h.
(§1) Table 19 summarizes the hEPO expression, IP-10 induction, liver and spleen levels, and alanine aminotransferase (ALT) and aspartate aminotransferase (AST) measured upon intravenous administration of formulations including Compounds 48, 49, and 50 to rat at 0.2 and 2 mpk and hEPO mRNA. hEPO concentrations were measured 6 hours after administration, while cytokine induction and liver and spleen levels were measured 48 hours after administration. hEPO and IP-10 concentrations are presented in pg/ml, while liver levels are provided in ng/g. ALT and AST levels are presented in international units.

rat = test: Clinical chemistry and hematology in rat after intravenous administration; assay type: in vivo; set-up: unit not given here; details: 2 mpk, 48 h post dose
Protocol: Sample formulations of nanoparticle compositions including different lipids were administered intravenously to rat at a dose of 2 mpk. The expression of various clinical markers was evaluated at 48 h post dose and compared to that induced by administration of MC3 formulations or phosphate buffered saline (PBS).
as §1

rats [2] = test: Residual lipid levels in liver and spleen of rats (UPLC-MS quantification); assay type: in vivo, rat; details: rats, 2 mpk, 48 h; assuming 300 g rat and 15 g liver
Protocol: At 48 h liver tissue was harvested for lipid quantification. To pre-weighed tissues, Milli-Q water was added (900 μL water per 100 mg tissue). Tissues were homogenized using an Omni probe homogenizer until uniform. 50 μL of samples and matrix calibration standards were aliquoted into a 96-well plate. 50 μL of blank matrix for matrix blanks and control blanks were aliquoted. 400 μL IS spiking solution were manually added to all samples except matrix blanks. 400 μL of 50:50 ACN:IPA were manually added to matrix blanks. The plate was covered and the samples vortexed and centrifuged for 5 minutes at >3000 rpm. 200 μL of the samples were transferred into a clean 96-well plate for analysis. Samples were analyzed on a Waters Acquity UPLC using a Higgins Analytical Clipeus C8 column ([…], 30×2.1 mm) and a gradient of either 70-95% or 60-95% (Mobile Phase A: 5 mM ammonium formate in 50:50:1 H2O:MeOH:formic acid; Mobile Phase B: 5 mM ammonium formate in 100:1 MeOH:formic acid) over 1.3 min at 1.2 mL/min (column temperature 55° C.). Detection was based on electrospray ionization (ESI) in positive mode using a Sciex API5500 Mass Spectrometer.
The expression of hEPO in rats intravenously administered a nanoparticle composition at a dose of 0.2 mpk or 2.0 mpk was measured at 6 hours. Table 16 summarize the ratio of hEPO expression levels using various nanoparticle compositions as compared to the hEPO expression level using MC3 formulation and the lipid levels in the liver measured 48 hours after administration, as described above. Tables 17 and 18 summarize the lipid levels in the liver and spleen measured 48 hours after administration of Compounds 28, 33, 53, and 54. Liver and spleen levels represent the average values calculated for 3 rats in each group. As is shown in Tables 17 and 18, less than 10% of Compounds 28, 33, 53, and 54 remained in the liver after 48 hours, while greater than 60% of MC3 remained.
as §1
The expression of hEPO induced by intravenous administration to rats of nanoparticle compositions at various doses was measured at 2, 4, 6, 8, 24, and 48 hour time points. FIGS. 3-6 respectively summarize the hEPO expression measured upon intravenous administration of formulations including Compounds 26, 18, 25, and MC3 to rat at various doses. The lipid levels of Compound 26 in the liver after 48 hours were about 19%.
The expression of hEPO and lipid levels in the liver and spleen in rats intravenously administered a nanoparticle composition at a dose of 0.2 mpk was measured at various timepoints. Compounds 18 and 25 were selected for comparison with MC3. Lipids were formulated according to the standard MC3 formulation described above. Rats were administered intravenously a single 0.2 mpk dose and expression monitored at 0.25, 0.5, 1, 2, 4, 8, 24, and 48 hours after administration.

mice [3] = test: Cytokine induction (IL-6, IP-10) in mice after intravenous administration; assay type: in vivo; set-up: IL-6 / IP-10: unit not given here; details: 0.5 mpk, 6 hours
How it was run: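 Nanoparticle compositions given intravenously to mice at 0.5 mpk; serum cytokine concentrations measured at 6 hours, with MC3 formulation and PBS as comparators.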

mice [4] = test: Luc expression (total flux) after intramuscular administration; assay type: in vivo; details: 6 hours after intramuscular administration, Luc mRNA and H10 mRNA

| Structure (SMILES) | IP-10 (rats [1]) [pg/mL] | Alanine aminotransferase (Concentration) (rat) | Aspartate aminotransferase (Concentration) (rat) | Lymphocytes (Concentration) (rat) | Monocytes (Concentration) (rat) | Neutrophils (Concentration) (rat) | % Lipid Remaining in liver, 48 h* 2 mpk (rats [2]) [%] | IL-6 (mice [3]) | IP-10 (mice [3]) | Total flux (p/s) 0.001 mpk Dose (mice [4]) [p/s] | Total flux (p/s) 0.01 mpk Dose (mice [4]) [p/s] |
| --- | --- | --- | --- | --- | --- | --- | --- | --- | --- | --- | --- |
| CCCCCC/C=C\COC(=O)CCCCCCCN(CCO)CCCCCCCC(=O)OC(CCCCCCCC)CCCCCCCC [Compound 24, Heptadecan-9-yl (Z)-8_((2-hydroxyethyl) (8-(non-2-en-1-yloxy)-8-oxooctyl)amino)octanoate] | 323.5 | 51.5 | 90 | 14100 | 1834 | 1790.5 | 0.016 | 163.53 | 1172.93 | 3.78E+06 | 3.97E+07 |
| CCCCCCCCCOC(=O)CCCCCCCN(CCO)CCCCCCCOC(=O)C(CCCCCCCC)CCCCCCCC [Compound 30, 7-((2-Hydroxyethyl)(8-(nonyloxy)-8-oxooctyl)amino)heptyl 2-octyldecanoate] | 214.5 | 56 | 95 | 10408.5 | 877 | 3195 | <0.01 | 152.51 | 1638.77 | 2.47E+06 | 3.77E+07 |
| CCCCCCCCCN(CCO)CCCCCCCC(=O)OC(CCCCCCCC)CCCCCCCC [Compound 3, Heptadecan-9-yl 8-((2-hydroxyethyl)(nonyl)amino)octanoate] | 542 | 53.5 | 87.5 | 12051 | 2103 | 3388.5 | 14 | – | – | 3.58E+06 | 4.95E+07 |
